Measured values: patent publication US20240327429A1, “[1,3]Thiazolo[4,5-d]-pyrimidon-7-ones as inhibitors of NOX4” (Boehringer Ingelheim International GmbH, priority 2023, published 2024)

The molecules below were run against T1, human NOX1 (hNOX1) (Homo sapiens, UniProt Q9Y5S8) (assay: NOX1 inhibition assay (L-012), HEK293 cells stably overexpressing human NOX1). Conditions: HEK293-hNOX1, PMA stimulated.
T1 construct: pLV-CMV-hNOX1-puro (NM_007052.5); host or cells: HEK293 (CLS GmbH), lentiviral transduction
T1 sequence (Q9Y5S8 1-564): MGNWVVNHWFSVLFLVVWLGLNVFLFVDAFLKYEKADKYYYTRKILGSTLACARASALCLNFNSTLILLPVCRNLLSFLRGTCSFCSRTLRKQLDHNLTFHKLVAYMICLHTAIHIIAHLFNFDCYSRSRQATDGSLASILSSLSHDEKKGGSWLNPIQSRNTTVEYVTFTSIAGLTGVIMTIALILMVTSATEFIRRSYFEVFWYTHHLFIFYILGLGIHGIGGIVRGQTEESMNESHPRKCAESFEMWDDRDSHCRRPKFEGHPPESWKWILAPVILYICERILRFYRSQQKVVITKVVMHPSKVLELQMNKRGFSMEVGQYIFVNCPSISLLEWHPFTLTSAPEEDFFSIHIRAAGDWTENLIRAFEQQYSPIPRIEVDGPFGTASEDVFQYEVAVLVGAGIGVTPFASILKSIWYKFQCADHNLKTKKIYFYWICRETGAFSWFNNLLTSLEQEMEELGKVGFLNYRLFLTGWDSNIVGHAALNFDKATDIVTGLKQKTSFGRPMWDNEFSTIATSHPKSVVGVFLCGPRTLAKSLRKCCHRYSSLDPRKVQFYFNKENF
T1 sequence (P13498 2-195 partner limits assumed): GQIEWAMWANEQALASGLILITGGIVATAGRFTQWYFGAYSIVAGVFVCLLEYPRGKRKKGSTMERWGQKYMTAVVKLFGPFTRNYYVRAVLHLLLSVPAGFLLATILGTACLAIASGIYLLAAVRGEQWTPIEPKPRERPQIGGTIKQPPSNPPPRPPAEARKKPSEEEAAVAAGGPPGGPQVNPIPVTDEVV
Type: cell-based
Source text: Plasmids are Purchased from Vectorbuilder. • for HEK-hNOX1 all necessary subunits are cloned accordingly: • pLV-CMV-hNOX1-puro (NM_007052.5) • pLV-CMV-hNOXO1-blas (NM_172168.3) • pLV-CMV-hp22phox-hygro (NM_000101.4) • pLV-CMV-hNOXA1-neo (NM_006647.2) • for HEK-hNOX3 • pLV-CMV-hNOX3-puro (NM_015718.3)
3rd generation lentiviral particles are produced in HEK293 suspension cells by transient transfection of three helper and expression plasmids. Crucial lentivirus supernatants are harvested, clarified by filtration and concentrated by precipitation. Lentivirus titers are determined in transducing units in (TU/mL) by transduction of HT1080 cells and colony forming assay. Parental HEK293 cells, purchased from CLS GmbH, are transduced with replication-incompetent 3rd generation lentiviral particles (MOI 2) and expanded for at least 2 weeks before cryopreservation of tested lots. During cultivation, medium is changed three times per week and cells are sub-cultured at least once per week. Selection antibiotics are added according to the plasmids (1 μg/ml puromycin, 1.5 μg/ml blasticidin, 200 μg/ml G418 and 100 μg/ml hygromycin).
Evaluation of the NOX4 inhibitors on NOX1 activity is assessed in HEK293 cells stably overexpressing human NOX1 (hNOX1).
Lastly, 8-amino-5-chloro-2,3-dihydro-7-phenyl-pyrido[3,4-d]pyridazine-1,4-dione sodium salt (L-012, CAS 143556-24-5) is added at 400 μM to all wells, and cells are incubated in an incubator for an additional 3 h. Afterwards luminescence is measured with a SpectraMax Paradigm Microplate Reader.

| Structure (SMILES) | IC50 |
| --- | --- |
| Cc1cc(Cl)ccc1CSc1nc2ncsc2c(=O)n1-c1cc(F)c(O)c(F)c1 [Example 3] | 1.7 µM |
| O=c1c2scnc2nc(SCc2ccc(Cl)cc2)n1-c1cc(F)c(O)c(F)c1 [Example 5] | 0.3 µM |
| O=c1c2scnc2nc(SCc2ccc(C(F)(F)F)cc2F)n1-c1cc(F)c(O)c(F)c1 [Example 6] | > 100 µM |
| O=c1c2scnc2nc(SCc2ccc(C(F)(F)F)cc2)n1-c1cc(F)c(O)c(F)c1 [Example 7] | > 100 µM |
| O=c1c2scnc2nc(SCc2c(F)cc(F)cc2F)n1-c1cc(F)c(O)c(F)c1 [Example 8] | 1.1 µM |
| Cc1cc(F)ccc1CSc1nc2ncsc2c(=O)n1-c1cc(F)c(O)c(F)c1 [Example 9] | 1.9 µM |
| O=c1c2scnc2nc(SCc2c(F)cc(F)cc2F)n1-c1cc(F)c(O)cc1F [Example 10, 6-(2,5-Difluoro-4-hydroxyphenyl)-5-((2,4,6-trifluorobenzyl)thio)thiazolo[4,5-d]pyrimidin-7(6H)-one] | 0.5 µM |
| O=c1c2scnc2nc(SCc2c(F)cc(F)cc2F)n1-c1ccc(O)c(F)c1 [Example 11] | 0.9 µM |
| O=c1c2scnc2nc(SCc2c(F)cc(F)cc2F)n1-c1ccc(O)c(F)c1F [Example 12] | 2.9 µM |
| O=c1c2scnc2nc(SCc2c(F)cc(F)cc2F)n1-c1c(F)cc(O)cc1F [Example 13] | 3.2 µM |
| O=c1c2scnc2nc(SCc2c(F)cc(F)cc2F)n1-c1ccc(O)cc1F [Example 14] | 2.3 µM |
| O=c1c2scnc2nc(SCc2c(F)cc(F)cc2F)n1-c1ccc(O)cc1 [Example 15] | 4.1 µM |
| O=c1c2scnc2nc(SCc2c(F)cc(F)cc2F)n1-c1ccc(O)c(Cl)c1 [Example 16] | 15 µM |
| O=c1c2scnc2nc(SCc2c(F)cc(F)cc2F)n1-c1ccc(O)cc1Cl [Example 17] | 14.4 µM |
| N#Cc1cc(-n2c(SCc3c(F)cc(F)cc3F)nc3ncsc3c2=O)ccc1O [Example 18] | 0.06 µM |
| O=c1c2scnc2nc(SCc2c(F)cc(F)cc2F)n1-c1ccc(O)cn1 [Example 19] | 16.9 µM |
| O=c1c2scnc2nc(SCc2c(F)cc(F)cc2F)n1-c1cc(F)c(O)cn1 [Example 20] | 7 µM |
| O=c1c2scnc2nc(SCc2c(F)cc(F)cc2F)n1-c1ncc(O)cn1 [Example 21, 6-(5-Hydroxypyrimidin-2-yl)-5-((2,4,6-trifluorobenzyl)thio)thiazolo[4,5-d]pyrimidin-7(6H)-one] | > 100 µM |
| O=c1c2scnc2nc(SCc2ccc(Cl)cc2F)n1-c1ccc(O)nc1 [Example 22, 5-((4-Chloro-2-fluorobenzyl)thio)-6-(6-hydroxypyridin-3-yl)thiazolo[4,5-d]pyrimidin-7(6H)-one] | > 100 µM |
| Cc1cc(Cl)ccc1CSc1nc2ncsc2c(=O)n1-c1ccc(O)nc1 [Example 23] | 48.1 µM |
| Cc1cc(F)cc(C)c1CSc1nc2ncsc2c(=O)n1-c1ccc(O)nc1 [Example 24] | 20.6 µM |
| O=c1c2scnc2nc(SCc2ccc(Cl)cc2)n1-c1ccc(O)nc1 [Example 25] | > 100 µM |
| O=c1c2scnc2nc(SCc2ccc(C(F)(F)F)cc2F)n1-c1ccc(O)nc1 [Example 26] | 33 µM |
| O=c1c2scnc2nc(SCc2ccc(C(F)(F)F)cc2)n1-c1ccc(O)nc1 [Example 27] | 76 µM |
| O=c1c2scnc2nc(SCc2c(F)cc(F)cc2F)n1-c1ccc(O)nc1 [Example 28] | 27.1 µM |
| Cc1cc(F)ccc1CSc1nc2ncsc2c(=O)n1-c1ccc(O)nc1 [Example 29] | 33.3 µM |

| Structure (SMILES) | IC50 |
| --- | --- |
| O=c1c2scnc2nc(SCc2ccc(F)cc2)n1-c1ccc(O)nc1 [Example 30] | 37.8 µM |
| O=c1c2scnc2nc(SCc2c(F)cc(F)cc2F)n1-c1cnc(O)c(F)c1 [Example 31, 6-(5-Fluoro-6-hydroxypyridin-3-yl)-5-((2,4,6-trifluorobenzyl)thio)thiazolo[4,5-d]-pyrimidin-7(6H)-one] | 22.9 µM |
| O=c1c2scnc2nc(SCc2ccc(C(F)(F)F)cc2)n1-c1cnc(O)c(F)c1 [Example 32, 6-(5-Fluoro-6-hydroxypyridin-3-yl)-5-((4-(trifluoromethyl)benzyl)thio)thiazolo[4,5-d]pyrimidin-7(6H)-one] | > 100 µM |
| O=c1c2scnc2nc(SCc2ccc(Cl)cc2)n1-c1cnc(O)c(F)c1 [Example 33] | 35.5 µM |
| O=c1c2scnc2nc(SCc2ccc(Br)cc2F)n1-c1cnc(O)c(F)c1 [Example 34] | 14.7 µM |
| O=c1c2scnc2nc(SCc2ccc(Cl)cc2F)n1-c1cnc(O)c(F)c1 [Example 35] | > 100 µM |
| Cc1cc(F)ccc1CSc1nc2ncsc2c(=O)n1-c1cnc(O)c(F)c1 [Example 36] | > 100 µM |
| Cc1cc(Cl)ccc1CSc1nc2ncsc2c(=O)n1-c1cnc(O)c(F)c1 [Example 37] | 18.8 µM |
| O=c1c2scnc2nc(SCc2ccc(F)cc2F)n1-c1cnc(O)c(F)c1 [Example 38] | > 100 µM |
| O=c1c2scnc2nc(SCc2ccc(Cl)cc2Cl)n1-c1cnc(O)c(F)c1 [Example 39] | 24.5 µM |
| Cc1c(F)cccc1CSc1nc2ncsc2c(=O)n1-c1cnc(O)c(F)c1 [Example 40] | 32.9 µM |
| O=c1c2scnc2nc(SCc2c(F)cc(F)cc2Cl)n1-c1cnc(O)c(F)c1 [Example 41] | 9.8 µM |
| O=c1c2scnc2nc(SCc2ccc(C(F)(F)F)cc2F)n1-c1cnc(O)c(F)c1 [Example 42] | 5.6 µM |
| Cc1cc(F)cc(C)c1CSc1nc2ncsc2c(=O)n1-c1cnc(O)c(F)c1 [Example 43] | > 100 µM |
| O=c1c2scnc2nc(SCc2ccc(F)cc2Br)n1-c1cnc(O)c(F)c1 [Example 44] | 43.2 µM |
| O=c1c2scnc2nc(SCc2c(F)ccc(F)c2F)n1-c1cnc(O)c(F)c1 [Example 45] | 30.9 µM |
| O=c1c2scnc2nc(SCc2ccc(C(F)(F)F)cc2Cl)n1-c1cnc(O)c(F)c1 [Example 46] | 48.4 µM |
| N#Cc1cc(-n2c(SCc3c(F)cc(F)cc3F)nc3ncsc3c2=O)cnc1O [Example 47, 2-Hydroxy-5-(7-oxo-5-((2,4,6-trifluorobenzyl)thio)thiazolo[4,5-d]pyrimidin-6(7H)-yl)-nicotinonitrile] | 4.9 µM |
| O=c1c2scnc2nc(SCc2c(F)cc(F)cc2F)n1-c1cnc(O)c(Cl)c1 [Example 48, 6-(5-Chloro-6-hydroxypyridin-3-yl)-5-((2,4,6-trifluorobenzyl)thio)thiazolo[4,5-d]pyri-midin-7(6H)-one] | 36.7 µM |
| O=c1c2scnc2nc(SCc2c(F)cc(F)cc2F)n1-c1cnc(O)cc1F [Example 49, 6-(4-Fluoro-6-hydroxypyridin-3-yl)-5-((2,4,6-trifluorobenzyl)thio)thiazolo[4,5-d]pyrimidin-7(6H)-one] | > 100 µM |
| O=c1c2scnc2nc(SCc2c(F)cc(F)cc2F)n1-c1ccc(O)nc1F [Example 50, 6-(2-Fluoro-6-hydroxypyridin-3-yl)-5-((2,4,6-trifluorobenzyl)thio)thiazolo[4,5-d]-pyrimidin-7(6H)-one] | 27.6 µM |
| O=c1c2scnc2nc(SCc2c(F)cc(F)cc2F)n1-c1cc(F)c(O)nc1F [Example 51, 6-(2,5-Difluoro-6-hydroxypyridin-3-yl)-5-((2,4,6-trifluorobenzyl)thio)thiazolo[4,5-d]-pyrimidin-7(6H)-one] | 3 µM |
| O=c1c2scnc2nc(SCc2c(F)cc(F)cc2F)n1-c1cnc(O)c(F)c1F [Example 52, 6-(4,5-Difluoro-6-hydroxypyridin-3-yl)-5-((2,4,6-trifluorobenzyl)thio)thiazolo[4,5-d]-pyrimidin-7(6H)-one] | 21.2 µM |
| O=c1c2scnc2nc(SCc2ccc(Cl)cc2F)n1-c1cnc(O)nc1 [Example 53, 5-((4-Chloro-2-fluorobenzyl)thio)-6-(2-hydroxypyrimidin-5-yl)thiazolo[4,5-d]pyrimidin-7(6H)-one] | > 100 µM |
| Cc1cc(F)cc(C)c1CSc1nc2ncsc2c(=O)n1-c1cnc(O)nc1 [Example 55] | 16.5 µM |
| O=c1c2scnc2nc(SCc2ccc(Cl)cc2)n1-c1cnc(O)nc1 [Example 56] | 2.7 µM |
